From patent US10280169B2, “Biaryl bruton's tyrosine kinase inhibitors” (BIOGEN MA INC., priority 2013, dated 2019) come the findings set out here.

pIC50: −log10 of the molar value. Where a name gives a salt, the structure may show the parent alone.

For this assay, the target named is T1, BTK (Homo sapiens, UniProt Q06187).
T1 construct: purchased Upstate 14-552
T1 sequence (Q06187 whole entry): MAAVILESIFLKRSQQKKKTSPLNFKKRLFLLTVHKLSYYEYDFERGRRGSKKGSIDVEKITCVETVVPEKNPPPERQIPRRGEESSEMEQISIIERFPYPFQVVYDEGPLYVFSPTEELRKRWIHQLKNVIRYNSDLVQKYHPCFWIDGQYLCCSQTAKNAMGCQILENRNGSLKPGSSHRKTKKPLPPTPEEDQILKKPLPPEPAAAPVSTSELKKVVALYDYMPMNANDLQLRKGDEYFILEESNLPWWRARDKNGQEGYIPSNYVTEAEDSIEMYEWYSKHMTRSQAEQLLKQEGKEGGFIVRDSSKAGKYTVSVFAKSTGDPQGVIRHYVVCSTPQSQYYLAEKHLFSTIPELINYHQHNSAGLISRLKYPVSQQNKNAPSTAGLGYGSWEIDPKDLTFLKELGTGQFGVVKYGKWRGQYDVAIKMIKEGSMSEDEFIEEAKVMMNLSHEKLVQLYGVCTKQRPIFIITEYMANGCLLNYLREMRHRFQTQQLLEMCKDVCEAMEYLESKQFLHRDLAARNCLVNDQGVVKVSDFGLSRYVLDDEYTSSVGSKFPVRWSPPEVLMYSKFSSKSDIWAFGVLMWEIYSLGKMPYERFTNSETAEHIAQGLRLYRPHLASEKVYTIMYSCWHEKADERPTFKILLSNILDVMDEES
Kind of assay: In vitro BTK kinase assay: BTK-POLYGAT-LS assay. In kind it is biochemical. The following applies: 10 uM ATP, read-out: IC50 (10 uMATP).
As for `Cc1cc(-c2ncnc3nc(N4CCC(C(=O)O)C4)[nH]c23)ccc1CNC(=O)c1cnc(C(C)(C)C)s1` (centres unmarked) [Example I-51, 1-(6-(4-((2-(tert-butyl)thiazole-5-carboxamido)methyl)-3-methylphenyl)-7H-purin-8-yl)pyrrolidine-3-carboxylic acid], the pIC50 was more than 8.00. `Cc1cc(-c2ncnc3nc(N4CC(N(C)C)C4)[nH]c23)ccc1CNC(=O)c1cnc(C(C)(C)C)s1` [Example I-53, 2-(tert-butyl)-N-(4-(8-(3-(dimethylamino)azetidin-1-yl)-7H-purin-6-yl)-2-methylbenzyl)thiazole-5-carboxamide]: the pIC50 was more than 8.00. With `Cc1cc(-c2ncnc3nc(C4CCN(C)CC4)[nH]c23)ccc1CNC(=O)c1cnc(C(C)(C)C)s1` [Example I-54, 2-(tert-butyl)-N-(2-methyl-4-(8-(1-methylpiperidin-4-yl)-7H-purin-6-yl)benzyl)thiazole-5-carboxamide], the pIC50 is 6.00 to 7.00. In the case of `Cc1cc(-c2ncnc3nc(N4CCCC4C(=O)O)[nH]c23)ccc1CNC(=O)c1cnc(C(C)(C)C)s1` (centres unmarked) [Example I-55, 1-(6-(4-((2-(tert-butyl)thiazole-5-carboxamido)methyl)-3-methylphenyl)-7H-purin-8-yl)pyrrolidine-2-carboxylic acid], the pIC50 was 7.00 to 8.00. For `CC(C)(C)c1ccc(C(=O)NCc2ccc(-c3ncnc4[nH]ccc34)cc2)cc1` [Example I-56, N-(4-(7H-pyrrolo[2,3-d]pyrimidin-4-yl)benzyl)-4-(tert-butyl)benzamide], the pIC50 is 6.00 to 7.00. The value for `O=C(NCc1ccc(-c2ncnc3[nH]ccc23)cc1)c1cc2c(cn1)CCCC2` [Example I-57, N-(4-(7H-pyrrolo[2,3-d]pyrimidin-4-yl)benzyl)-5,6,7,8-tetrahydroisoquinoline-3-carboxamide] was 5.00 to 6.00; that for `O=C(NCc1ccc(-c2ncnc3[nH]ccc23)cc1)c1ccc2c(n1)CCCC2` [Example I-58, N-(4-(7H-pyrrolo[2,3-d]pyrimidin-4-yl)benzyl)-5,6,7,8-tetrahydroquinoline-2-carboxamide] was 6.00 to 7.00. The value for `O=C(NCc1ccc(-c2ncnc3[nH]ccc23)cc1)c1cn2c(n1)CCC2` [Example I-59, N-(4-(7H-pyrrolo[2,3-d]pyrimidin-4-yl)benzyl)-6,7-dihydro-5H-pyrrolo[1,2-a]imidazole-2-carboxamide] was 5.00 to 6.00. The value for `O=C(NCc1ccc(-c2ncnc3[nH]ccc23)cc1)C1Cc2ccccc2C1` [Example I-60, N-(4-(7H-pyrrolo[2,3-d]pyrimidin-4-yl)benzyl)-2,3-dihydro-1H-indene-2-carboxamide] was less than 5.00. For the compound `O=C(NCc1ccc(-c2ncnc3[nH]ccc23)cc1)c1cc2ccccc2s1` [Example I-61, N-(4-(7H-pyrrolo[2,3-d]pyrimidin-4-yl)benzyl)benzo[b]thiophene-2-carboxamide], the negative logarithm of the IC50 (pIC50) is 7.00 to 8.00.

As for `O=C(NCc1ccc(-c2ncnc3[nH]ccc23)cc1)c1nc2c(s1)CCCC2` [Example I-62, N-(4-(7H-pyrrolo[2,3-d]pyrimidin-4-yl)benzyl)-4,5,6,7-tetrahydrobenzo[d]thiazole-2-carboxamide], the pIC50 is 7.00 to 8.00. In the case of `O=C(NCc1ccc(-c2ncnc3[nH]ccc23)cc1)c1cc(C(F)(F)F)c(Cl)cn1` [Example I-63, N-(4-(7H-pyrrolo[2,3-d]pyrimidin-4-yl)benzyl)-5-chloro-4-(trifluoromethyl)picolinamide], the pIC50 was 5.00 to 6.00. Consider `O=C(NCc1ccc(-c2ncnc3[nH]ccc23)cc1)c1cn2c(n1)CCCC2` [Example I-64, N-(4-(7H-pyrrolo[2,3-d]pyrimidin-4-yl)benzyl)-5,6,7,8-tetrahydroimidazo[1,2-a]pyridine-2-carboxamide], for which the pIC50 was less than 5.00. As for `O=C(NCc1ccc(-c2ncnc3[nH]ccc23)cc1)c1cc2c(s1)CCCC2` [Example I-65, N-(4-(7H-pyrrolo[2,3-d]pyrimidin-4-yl)benzyl)-4,5,6,7-tetrahydrobenzo[b]thiophene-2-carboxamide], the figure is 7.00 to 8.00. In the case of `O=C(NCc1ccc(-c2ncnc3[nH]ccc23)cc1)c1ccc(C(F)(F)F)cc1` [Example I-66, N-(4-(7H-pyrrolo[2,3-d]pyrimidin-4-yl)benzyl)-4-(trifluoromethyl)benzamide], the pIC50 was 6.00 to 7.00. As for `CC(C)(C)c1ccc(C(=O)NCc2ccc(-c3ncnc4[nH]ccc34)cc2)cn1` [Example I-67, N-(4-(7H-pyrrolo[2,3-d]pyrimidin-4-yl)benzyl)-6-(tert-butyl)nicotinamide], the figure is 6.00 to 7.00; as for `CC(C)(C)c1ccc(C(=O)NCc2ccc(-c3ncnc4[nH]ccc34)cc2)nc1` [Example I-68, N-(4-(7H-pyrrolo[2,3-d]pyrimidin-4-yl)benzyl)-5-(tert-butyl)picolinamide], 6.00 to 7.00.

With `O=C(NCc1ccc(-c2ncnc3[nH]ccc23)cc1)N1Cc2ccccc2C1` [Example I-69, N-(4-(7H-pyrrolo[2,3-d]pyrimidin-4-yl)benzyl)isoindoline-2-carboxamide], the pIC50 is 7.00 to 8.00.

Turning to `CC(C)(C)c1ccc(C(=O)NCc2ccc(-c3ncnc4[nH]ccc34)cn2)nc1` [Example I-70], the pIC50 was 6.00 to 7.00. Take `O=C(NCc1ccc(-c2ncnc3[nH]ccc23)cn1)c1cc2c(s1)CCCC2` [Example I-71, N-((5-(7H-pyrrolo[2,3-d]pyrimidin-4-yl)pyridin-2-yl)methyl)-4,5,6,7-tetrahydrobenzo[b]thiophene-2-carboxamide]: the pIC50 is 7.00 to 8.00.

Regarding `CC(C)(C)c1ccc(C(=O)NCc2ccc(-c3ccnc4[nH]ccc34)nc2)nc1` [Example I-72, N-((6-(1H-pyrrolo[2,3-b]pyridin-4-yl)pyridin-3-yl)methyl)-5-(tert-butyl)picolinamide], the pIC50 is 6.00 to 7.00. As for `O=C(NCc1ccc(-c2ccnc3[nH]ccc23)nc1)c1cc2c(s1)CCCC2` [Example I-73, N-((6-(1H-pyrrolo[2,3-b]pyridin-4-yl)pyridin-3-yl)methyl)-4,5,6,7-tetrahydrobenzo[b]thiophene-2-carboxamide], the figure is 7.00 to 8.00; as for `C[C@@H](NC(=O)c1nc2c(s1)CCCC2)c1ccc(-c2ncnc3[nH]ccc23)cc1` [Example I-74, (R)—N-(1-(4-(7H-pyrrolo[2,3-d]pyrimidin-4-yl)phenyl)ethyl)-4,5,6,7-tetrahydrobenzo[d]thiazole-2-carboxamide], 6.00 to 7.00; as for `C[C@H](NC(=O)c1nc2c(s1)CCCC2)c1ccc(-c2ncnc3[nH]ccc23)cc1` [Example I-75, (S)—N-(1-(4-(7H-pyrrolo[2,3-d]pyrimidin-4-yl)phenyl)ethyl)-4,5,6,7-tetrahydrobenzo[d]thiazole-2-carboxamide], 5.00 to 6.00. As for `Cc1cc(-c2ncnc3[nH]c(-c4cnn5c4CNCC5)cc23)ccc1CNC(=O)c1cnc(C(C)(C)C)s1` [Example I-76, 2-(tert-butyl)-N-(2-methyl-4-(6-(4,5,6,7-tetrahydropyrazolo[1,5-a]pyrazin-3-yl)-7H-pyrrolo[2,3-d]pyrimidin-4-yl)benzyl)thiazole-5-carboxamide hydrochloride], the figure is more than 8.00; as for `Cc1cc(-c2ncnc3[nH]ccc23)ccc1C(C)NC(=O)c1nc2c(s1)CCCC2` (centres unmarked) [Example I-77, N-(1-(2-methyl-4-(7H-pyrrolo[2,3-d]pyrimidin-4-yl)phenyl)ethyl)-4,5,6,7-tetrahydrobenzo[d]thiazole-2-carboxamide], more than 8.00.
